# How the values were obtained:
# [1] = tested on: imatinib- and sunitinib-resistant GISTs; settings: phase II study; cited from earlier work
# [2] = target: GIST48 cells (KIT V560D + D820A) (Homo sapiens, UniProt P10721, D820A/V560D); settings: doses as low as 100 nmol/L
# [3] = tested on: imatinib- or imatinib/sunitinib-resistant GIST; settings: sorafenib 400 mg twice daily, cited from earlier work
# [4] = tested on: GIST after imatinib, sunitinib and nilotinib therapy; settings: fourth-line, 400 mg twice daily, cited from earlier work
# GIST patients = GIST patients treated with sorafenib; cited from earlier work
# drug-resistant GIST = settings: third-line treatment, cited from earlier work
# imatinib-resistant GIST = settings: second-line setting; cited from earlier work
# Sequence of GIST48 cells (KIT V560D + D820A) (P10721 26-976 V560D/D820A): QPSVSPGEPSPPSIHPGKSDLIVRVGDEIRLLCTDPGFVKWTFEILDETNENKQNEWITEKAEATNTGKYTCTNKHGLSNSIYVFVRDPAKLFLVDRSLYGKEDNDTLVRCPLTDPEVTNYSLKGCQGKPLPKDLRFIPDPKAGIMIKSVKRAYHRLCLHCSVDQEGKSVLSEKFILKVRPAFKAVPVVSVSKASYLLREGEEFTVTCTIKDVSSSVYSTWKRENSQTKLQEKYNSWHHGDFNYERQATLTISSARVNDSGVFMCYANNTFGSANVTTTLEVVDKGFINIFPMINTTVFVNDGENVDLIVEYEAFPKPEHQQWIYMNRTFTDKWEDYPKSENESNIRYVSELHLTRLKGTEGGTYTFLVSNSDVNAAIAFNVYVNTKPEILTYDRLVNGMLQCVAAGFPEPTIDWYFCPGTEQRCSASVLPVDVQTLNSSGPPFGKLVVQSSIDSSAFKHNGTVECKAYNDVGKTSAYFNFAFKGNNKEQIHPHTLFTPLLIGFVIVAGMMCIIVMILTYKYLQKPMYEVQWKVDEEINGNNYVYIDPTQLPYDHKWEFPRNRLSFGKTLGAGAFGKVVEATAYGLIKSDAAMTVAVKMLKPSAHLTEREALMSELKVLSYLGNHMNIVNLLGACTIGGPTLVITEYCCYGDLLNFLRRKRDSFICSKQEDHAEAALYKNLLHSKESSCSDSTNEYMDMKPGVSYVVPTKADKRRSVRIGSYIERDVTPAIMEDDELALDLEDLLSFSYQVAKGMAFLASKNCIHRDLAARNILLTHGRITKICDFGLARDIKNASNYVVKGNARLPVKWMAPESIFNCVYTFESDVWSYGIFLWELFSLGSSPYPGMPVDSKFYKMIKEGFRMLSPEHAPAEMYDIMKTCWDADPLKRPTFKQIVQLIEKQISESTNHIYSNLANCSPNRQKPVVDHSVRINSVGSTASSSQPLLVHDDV
structure (smiles),measurement,setting,value
CNC(=O)c1cc(Oc2ccc(NC(=O)Nc3ccc(Cl)c(C(F)(F)F)c3)c(F)c2)ccn1 [Regorafenib],clinical benefit rate,[1],55%
same,median PFS,[1],10 months
CNC(=O)c1cc(Oc2ccc(NC(=O)Nc3ccc(Cl)c(C(F)(F)F)c3)cc2)ccn1 [Sorafenib],inhibition of KIT phosphorylation,[2],85%
same,disease control rate,[3]; 38 patients,68%
same,hand-foot syndrome (grade 3-4 toxicity),[3],45%
same,median OS,[3],11.6 months
same,patients requiring at least one dose reduction,[3],63%
same,rate of grade 3-4 toxicity,[3],greater than 50%
same,overall tumor control rate,[4]; 32 patients,63%
same,median PFS,[4],4.6 months
same,grade 3-4 anemia,GIST patients,7%
same,grade 3-4 elevated liver enzymes or bilirubin,GIST patients,7%
same,grade 3-4 fatigue,GIST patients,5%
same,grade 3-4 hand-foot skin reaction,GIST patients,16%
same,grade 3-4 hypertension,GIST patients,5%
same,median OS,drug-resistant GIST; median follow-up of 7.5 months,had not been reached
same,median PFS,drug-resistant GIST,4.6 months
same,overall disease control rate,drug-resistant GIST,65%
CCN(CC)CCNC(=O)c1c(C)[nH]c(/C=C2\C(=O)Nc3ccc(F)cc32)c1C [Sunitinib],disease control rate,imatinib-resistant GIST,65%
same,median OS,imatinib-resistant GIST,17.2 months
